Data as given in patent US20240409523A1, “SUGAR AMIDES AND MIXTURES THEREOF” (Clariant International Ltd, priority 2021, published 2024).

Columns and labels:
Format in all cases: cell-based
[1] = system: Burkholderia cepacia; experiment: MIC, agar dilution (bacteria); conditions: Burkholderia cepacia (B); Caso-Agar, pH 7 (+/−0.2)
Experimental: (§1) For testing the inhibition of bacteria, the sample was diluted in demineralized water and added in different concentrations to liquid Caso-Agar at 50° C. and is buffered to pH 7 (+/−0.2). […] Each of the solutions is poured into a petri-dish and inoculated with the same amount of bacteria, yeast or mold respectively. The minimum inhibitory concentration (MIC) is the lowest concentration of the sample that inhibits the growth of the respective microorganism where the next lowest dilution fails to inhibit the growth of said microorganism.

[2] = system: Enterobacter aerogenes; experiment: MIC, agar dilution (bacteria); conditions: Enterobacter aerogenes (B); Caso-Agar, pH 7 (+/−0.2)
Experimental: as §1

[3] = system: Escherichia coli; experiment: MIC, agar dilution (bacteria); conditions: Escherichia coli (B); Caso-Agar, pH 7 (+/−0.2)
Experimental: as §1

[4] = system: Klebsiella pneumoniae; experiment: MIC, agar dilution (bacteria); conditions: Klebsiella pneumoniae (B); Caso-Agar, pH 7 (+/−0.2)
Experimental: as §1

[5] = system: Pluralibacter gergoviae; experiment: MIC, agar dilution (bacteria); conditions: Pluralibacter gergoviae (B); Caso-Agar, pH 7 (+/−0.2)
Experimental: as §1

[6] = system: Pseudomonas aeruginosa; experiment: MIC, agar dilution (bacteria); conditions: Pseudomonas aeruginosa (B); Caso-Agar, pH 7 (+/−0.2)
Experimental: as §1

[7] = system: Serratia marcescens; experiment: MIC, agar dilution (bacteria); conditions: Serratia marcescens (B); Caso-Agar, pH 7 (+/−0.2)
Experimental: as §1

[8] = system: Staphylococcus aureus; experiment: MIC, agar dilution (bacteria); conditions: Staphylococcus aureus (B); Caso-Agar, pH 7 (+/−0.2)
Experimental: as §1

[9] = system: Aspergillus brasiliensis; experiment: MIC, agar dilution (yeast and mold); conditions: Aspergillus brasiliensis (M); Sabouraud-4% Dextrose-Agar, pH 5.6 (+/−0.2)
Experimental: as §1

[10] = system: Aspergillus terreus; experiment: MIC, agar dilution (yeast and mold); conditions: Aspergillus terreus (M); Sabouraud-4% Dextrose-Agar, pH 5.6 (+/−0.2)
Experimental: as §1

[11] = system: Candida albicans; experiment: MIC, agar dilution (yeast and mold); conditions: Candida albicans (Y); Sabouraud-4% Dextrose-Agar, pH 5.6 (+/−0.2)
Experimental: as §1

[12] = system: Candida parapsilosis; experiment: MIC, agar dilution (yeast and mold); conditions: Candida parapsilosis (Y); Sabouraud-4% Dextrose-Agar, pH 5.6 (+/−0.2)
Experimental: as §1

[13] = system: Fusarium solani; experiment: MIC, agar dilution (yeast and mold); conditions: Fusarium solani (M); Sabouraud-4% Dextrose-Agar, pH 5.6 (+/−0.2)
Experimental: as §1

[14] = system: Penicillium funicolosum; experiment: MIC, agar dilution (yeast and mold); conditions: Penicillium funicolosum (M); Sabouraud-4% Dextrose-Agar, pH 5.6 (+/−0.2)
Experimental: as §1

[15] = system: Penicillium minioluteum; experiment: MIC, agar dilution (yeast and mold); conditions: Penicillium minioluteum (M); Sabouraud-4% Dextrose-Agar, pH 5.6 (+/−0.2)
Experimental: as §1

[16] = system: Saccharomyces cerevisiae; experiment: MIC, agar dilution (yeast and mold); conditions: Saccharomyces cerevisiae (Y); Sabouraud-4% Dextrose-Agar, pH 5.6 (+/−0.2)
Experimental: as §1

“Cyclic N-Octanoyl/Decanoyl-N-Methylxylosamide [N-Methyl Xylosamid]” was tested, and the “MIC of N-Methyl Xylosamid* (70% active) in water” value (“MIC … (70% active) in water” below) [1] was 7500 ppm, the “MIC … (70% active) in water” value [2] was 15000 ppm and the “MIC … (70% active) in water” value [3] was 15000 ppm. For the same substance, the “MIC … (70% active) in water” value [4] was 1000 ppm, the “MIC … (70% active) in water” value [5] was 15000 ppm and the “MIC … (70% active) in water” value [6] was 10000 ppm. The “MIC … (70% active) in water” value [7] was 10000 ppm, the “MIC … (70% active) in water” value [8] was under 500 ppm and the “MIC … (70% active) in water” value [9] was 2000 ppm. The “MIC … (70% active) in water” value [10] was 3000 ppm, the “MIC … (70% active) in water” value [11] was 3000 ppm and the “MIC … (70% active) in water” value [12] was 7500 ppm. For the same substance, the “MIC … (70% active) in water” value [13] was 1000 ppm, the “MIC … (70% active) in water” value [14] was 1000 ppm and the “MIC … (70% active) in water” value [15] was 1500 ppm. For the same substance, the “MIC … (70% active) in water” value [16] was 1000 ppm.
